Experimental data reported in patent US20190070113A1, “Treating Ephrin Receptor A2 (Epha2) Positive Cancer with Targeted Docetaxel-Generating Nano-Liposome Compositions” (Merrimack Pharmaceuticals, Inc., priority 2016, published 2019).
One block for each molecule: values may come before it.

Columns and labels:
#12424 PDX tumor model = test: Efficacy in pancreatic patient derived xenograft #12424 (PDX 12424-8P); conditions: for growth inhibition versus saline control: both dose levels (Gemcitabine 35 and 100 mg/kg; Oxaliplatin 5 and 10 mg/kg)
Method: (§1) Experiments were performed according to approved guidelines. CB.17 SCID mice were obtained from Roswell Park Cancer Institute, initially at 6-8 weeks of age. Per treatment group, 8 animals were treated, unless otherwise indicated. Tumor pieces were derived from donor mice and engrafted subcutaneously. Depending on the variability in tumor growth, animals were either randomized to the different arms at one specific timepoint or a rolling randomization was performed in which a subgroup of animals were randomized through a period of time to ensure less variability in starting sizes. Animals were randomized and dosing initiated when tumors reached an average volume of 200-250 mm^3 (range 100-400 mm^3), unless otherwise indicated.
(§2) For efficacy experiments, 46scFv-ILs-DTXp3 were generated as described in composition description.
Intravenous administration of the indicated doses of each agent was initiated when tumors reached an average volume of 200-250 mm^3 and continued for a total of four weekly doses. Tumor volumes were measured once to twice weekly during the dosing cycle and until tumors regrow or reaching maximum monitoring period of 120-160 days or animals were in poor general health and needed to be sacrificed. The tumor progression was monitored by palpation and caliper measurements of the tumors along the largest (length) and smallest (width) axis twice a week.
(§3) Tumor volume (TV)=[(length)×(width)^2]/2
(§4) Single tumor volume curves for each animal were plotted and two metrics that describe antitumor effects were calculated as follows:
(§5) 1) Max Response=[(minimum TV−TV at day 0)/TV at day 0]×100
(§6) 2) Time to regrowth=Time for the tumor to reach four times its initial size
(§7) All statistical analysis between treatment groups was performed using JMP v11.0 software. For treatment group comparison, two-way ANOVA analysis was performed in conjunction with post hoc Tukey HSD statistical analysis.
Model #12424 was maintained by passaging tumor fragments in immunodeficient mice. This PDX model was at passage 8 for study #12424-8P.

[1] = tested on: human ovarian patient derived model OVx-132; test: Combination with carboplatin in ovarian patient derived model OVx-132; type: in vivo, Immunodeficient mice; conditions: for growth arrest and tumor regression: docetaxel 5 mg/kg, 46scFv-ILs-DTXp3 25 mg/kg, carboplatin 60 mg/kg, combinations dosed 3 days apart, carboplatin first; for Time-to-tumor regrowth (TTR; time for tumor to double its volume): monitored 160 days
Method: Immunodeficient mice were implanted with human ovarian patient derived model OVx-132. Animals randomized into the following experimental groups: Saline, docetaxel at 5 mg/kg, 46scFv-ILs-DTXp3 at 25 mg/kg, carboplatin 60 mg/kg, carboplatin/docetaxel, and carboplatin/46scFv-ILs-DTXp3. For the combinations groups carboplatin/docetaxel and carboplatin/46scFv-ILs-DTXp3 doses used for the monotherapy arms were combined and dosed 3 days a part with carboplatin being dosed first followed by the docetaxel or 46scFv-ILs-DTXp3.
The animals received four tail vein injections, at the intervals of 7 days. Tumor size was monitored once to twice weekly.
Tumor volume(TV)=[(length)×(width)^2]/2
Maximum response was calculated using the following formula where TV is tumor volume:
Max tumor regression=[(TVmin−TVday0)/TVday0]×100
Maximum tumor regression was classified as complete tumor regression (100% regression with no palpable tumor), partial tumor regression (max tumor regression more than 30%) or no tumor regression.
Animals were monitored until tumor regrowth or end of monitoring period (>120 days). Time to regrowth was defined as time for tumor to double its volume. Animals sacrificed prior to tumor volume doubling are censored.

[2] = Short-term tolerance test of 46scFv-ILs-DTXp3 with Gemcitabine or Carboplatin; type: in vivo, CD-1 female mice; conditions: for histopathology: individual hepatocyte necrosis: carboplatin combo and mono, gemcitabine combo with 46scFv-ILs-DTXp3 100 mpk; for histopathology: extramedullary hematopoiesis in the spleen: carboplatin mono and combo, Gemcitabine combo with 46scFv-ILs-DTXp3 100 mpk
Method: Gemcitabine and Carboplatin are chemotherapeutic agents likely to be combined with 46scFv-ILs-DTXp3 in the clinic. Gemcitabine alone is well tolerated in mice; most protocols list an MTD for i.p. dosing around 240 mpk q3d. […] The stock concentration of 46scFv-ILs-DTXp3 was 11.09 mg/ml. Carboplatin was purchased from Hospira Inc and used at a stock concentration of 10 mg/ml. Gemcitibine was purchased from Sun Pharam and used at a stock concentration of 38 mg/ml.
CD-1 female mice (7-8 week old) were obtained from Charles River. During the treatment phase mice body weight was monitored daily. In order to assess the effect of drug scheduling on tolerability, animals were treated with a single dose of 46scFv-ILs-DTXp3 followed by a dose of either carboplatin or gemcitabine at various dose levels and starting at different timepoints post 46scFv-ILs-DTXp3 treatment (Table 3). Additionally, a single treatment group treated with carboplatin or gemcitabine was added.
At study end (10 days after last drug dose, i.e. day 10 for 8 h, day 11 for 24 h, and day 13 for 72 h combinations), mice were euthanized with carbon dioxide. Blood was collected by cardiac puncture. Catalyst analysis used an EQUINE-15 clip with an additional individual ALT assay added (Idexx, Westbrook, Mass.). Tissues collected included liver, kidney, spleen, heart, skeletal muscle (with skin attached). Tissues were fixed in 10% neutral buffered formalin ˜24 h, then stored in 70% ethanol. Tissues from mice in the highest-dose groups (all time points) as well as untreated and single-agent controls were shipped to Mass Histology Inc (Worcester, Mass.) for processing, and H&E staining of sectioned tissues. Received slides were scanned at 20X on the aperio bright field scanner.

Hydrolysis in buffer = type: physicochemical; conditions: 37° C.
Method: A volume of a 10 mg/mL solution of drug in DMSO as needed to provide the desired concentration (typically 16 μL to yield a 80 μg/mL solution) (see Table 1) is placed in a glass test tube or 4 mL vial. Additional DMSO may also be added (e.g. 64 μL when using 16 μL of drug solution) to yield a final total DMSO concentration of 4%. The DMSO solutions are mixed by brief vortexing, and then 2 mL (20 mM) HEPES buffer for pH 7.5 and 2 mL of (20 mM) phosphate buffer for pH 2.5 is added and the mixture is vortexed again. The initial pH may be adjusted by addition of HCl or NaOH.
Then 100 μL aliquots of the buffer solution of drug are transferred into HPLC vials and incubated in a 37° C. water bath. The remaining solution is also incubated at 37° C. in 4 mL vials for monitoring of pH.
At each time point 900 μL of 0.1% trifluoroacetic acid (TFA) in acetonitrile (ACN) is added to the HPLC vial and the contents are vortexed. The vials are then placed in an autosampler rack at 4° C. for HPLC analysis.
Time zero data points are typically obtained from a solution of 4 μL DMSO stock in 5 mL of 0.1% TFA/ACN (8 μg/mL).
HPLC analysis is performed on a SYNERGI 4 micron Polar RP-80A, 250×4.6 mm column, using a flow rate of 1 mL./min, a 50 μL injection volume, column temperature of 25° C. and with UV detection at 227 nm. Most compounds are analyzed using a 13 min gradient (Method A) from 30 to 66% acetonitrile in aqueous 0.1% TFA, followed by a 1 min gradient back to 30% and a hold at 30% for 6 minutes. If the retention time is too long for this method, a 20 min gradient (Method B) of 30 to 90% acetonitrile, followed by a 1 min return to 30% and held for 9 min at 30% is employed.
The extent of hydrolysis is reported in Table 4 below as the % PTX or DTX formation based on relative peak areas.

[3] = mice; i.p. dosing q3d; most protocols list; cited from earlier work
PDX model #14244 = test: Efficacy in patient derived xenograft #14244 (PDX 14244-9P); conditions: for maximal tumor response to drug compared to control group: both dose levels
Method: The pancreatic xenograft model series are true xenotransplant models that were directly engrafted from patient tumor resections into SCID mice for propagation and maintained by transplantation of tumor fragments (Hylander et al., 2005, 2013). […] CB.17 SCID mice were obtained from Roswell Park Cancer Institute, initially at 6-8 weeks of age. Per treatment group, 8 animals were treated, unless otherwise indicated. Tumor pieces were derived from donor mice and engrafted subcutaneously. Depending on the variability in tumor growth, animals were either randomized to the different arms at one specific timepoint or a rolling randomization was performed in which a subgroup of animals were randomized through a period of time to ensure less variability in starting sizes. Animals were randomized and dosing initiated when tumors reached an average volume of 200-250 mm^3 (range 100-400 mm^3), unless otherwise indicated.
For efficacy experiments, 46scFv-ILs-DTXp3 were generated as described in composition description. […] MM-398 was generated in house using the final commercial process.
(§8) Intravenous administration of the indicated doses of each agent was initiated when tumors reached an average volume of 200-250 mm^3 and continued for a total of four weekly doses. Tumor volumes were measured once to twice weekly during the dosing cycle and until tumors regrow or reaching maximum monitoring period of 120-160 days or animals were in poor general health and needed to be sacrificed. The tumor progression was monitored by palpation and caliper measurements of the tumors along the largest (length) and smallest (width) axis twice a week. The tumor sizes were determined twice weekly from the caliper measurements using the formula (Geran, R. I., et al., 1972 Cancer Chemother. Rep. 3:1-88):
as §3, §4, §5, §6, §7
Model #14244 was maintained by passaging tumor fragments in immunodeficient mice. This PDX model was at passage 9 for study #14244-9P.

[4] = tested on: Pancreatic PDX model #15010; test: Efficacy in pancreatic patient derived xenograft #15010 (PDX 15010-P5)
Method: as §1, §2, §8, §3, §4, §5, §6, §7

Method for PDX 14244-10P: CB.17 SCID mice were obtained from Roswell Park Cancer Institute, initially at 6-8 weeks of age. Per treatment group, 8 animals were treated, unless otherwise indicated. Tumor pieces were derived from donor mice and engrafted subcutaneously. Depending on the variability in tumor growth, animals were either randomized to the different arms at one specific timepoint or a rolling randomization was performed in which a subgroup of animals were randomized through a period of time to ensure less variability in starting sizes. Animals were randomized and dosing initiated when tumors reached an average volume of 200-250 mm^3 (range 100-400 mm^3), unless otherwise indicated.
Intravenous administration of the indicated doses of each agent was initiated when tumors reached an average volume of 200-250 mm^3 and continued for a total of four weekly doses. Tumor volumes were measured once to twice weekly during the dosing cycle and until tumors regrow or reaching maximum monitoring period of 120-160 days or animals were in poor general health and needed to be sacrificed. The tumor progression was monitored by palpation and caliper measurements of the tumors along the largest (length) and smallest (width) axis twice a week. The tumor sizes were determined twice weekly from the caliper measurements using the formula (Geran, R. I., et al., 1972 Cancer Chemother. Rep. 3:1-88): […]

Compound: O=c1[nH]cc(F)c(=O)[nH]1 [5-Fluorouracil]
inhibition of tumor growth compared to saline control (time to regrowth) (#12424 PDX tumor model; 50 mg/kg, four weekly IV doses): 12 days

Compound: N.N.O=C([O-])C1(C(=O)[O-])CCC1.[Pt+2] [Carboplatin]
growth arrest and tumor regression [1]: minimal growth arrest and no tumor regression
Time-to-tumor regrowth (TTR; time for tumor to double its volume) [1]: minor delay on time to regrowth
weight loss in individual mice at day 6 ([2]; Carboplatin 84 mg/kg dosed 8 h or 24 h after 46scFv-ILs-DTXp3 100 mpk, regained weight by day 10-11): at most 10%
histopathology: individual hepatocyte necrosis ([2]; highest-dose groups): increased incidence of individual hepatocyte necrosis (minimal to mild)
histopathology: extramedullary hematopoiesis in the spleen ([2]; highest-dose groups): Increased extramedullary hematopoieisis (EMH) in the spleen
histopathology: mitotic rate in the liver ([2]; carboplatin treated groups, highest-dose groups): increase in mitotic rate in the liver

Compound: CCN(CC)CCCC(=O)O[C@@H](C(=O)O[C@H]1C[C@@]2(O)[C@@H](OC(=O)c3ccccc3)[C@@H]3[C@]4(OC(C)=O)CO[C@@H]4C[C@H](O)[C@@]3(C)C(=O)[C@H](O)C(=C1C)C2(C)C)[C@@H](NC(=O)OC(C)(C)C)c1ccccc1.Cl [Compound 3, 2′-O-(4-Diethylamino Butanoyl) DTX Hydrochloride]
Percentage of Hydrolysis (% DTX formation) (Hydrolysis in buffer; pH 2.5, 0 h): 0.00%
Percentage of Hydrolysis (% DTX formation) (Hydrolysis in buffer; pH 2.5, 5 h): 0.00%
Percentage of Hydrolysis (% DTX formation) (Hydrolysis in buffer; pH 2.5, 24 h): 0.00%
Percentage of Hydrolysis (% DTX formation) (Hydrolysis in buffer; pH 2.5, 48 h): 0.00%
Percentage of Hydrolysis (% DTX formation) (Hydrolysis in buffer; pH 2.5, 96 h): 0%
Percentage of Hydrolysis (% DTX formation) (Hydrolysis in buffer; pH 7.5, 0 h): 0.00%
Percentage of Hydrolysis (% DTX formation) (Hydrolysis in buffer; pH 7.5, 5 h): 45.76%
Percentage of Hydrolysis (% DTX formation) (Hydrolysis in buffer; pH 7.5, 24 h): 100.00%
Percentage of Hydrolysis (% DTX formation) (Hydrolysis in buffer; pH 7.5, 48 h): 100.00%
Percentage of Hydrolysis (% DTX formation) (Hydrolysis in buffer; pH 7.5, 96 h): 100%

Percentage of Hydrolysis (% DTX formation) (Hydrolysis in buffer; pH 2.5, 0 h): 0.00%
Percentage of Hydrolysis (% DTX formation) (Hydrolysis in buffer; pH 2.5, 5 h): 0.00%
Percentage of Hydrolysis (% DTX formation) (Hydrolysis in buffer; pH 2.5, 24 h): 0.00%
Percentage of Hydrolysis (% DTX formation) (Hydrolysis in buffer; pH 2.5, 48 h): 0.00%
Percentage of Hydrolysis (% DTX formation) (Hydrolysis in buffer; pH 2.5, 96 h): 0%
Percentage of Hydrolysis (% DTX formation) (Hydrolysis in buffer; pH 7.5, 0 h): 0.00%
Percentage of Hydrolysis (% DTX formation) (Hydrolysis in buffer; pH 7.5, 5 h): 76.07%
Percentage of Hydrolysis (% DTX formation) (Hydrolysis in buffer; pH 7.5, 24 h): 100.00%
Percentage of Hydrolysis (% DTX formation) (Hydrolysis in buffer; pH 7.5, 48 h): 100.00%
Percentage of Hydrolysis (% DTX formation) (Hydrolysis in buffer; pH 7.5, 96 h): 100%
Compound: CC(=O)O[C@@]12CO[C@@H]1C[C@H](O)[C@@]1(C)C(=O)[C@H](O)C3=C(C)[C@@H](OC(=O)[C@H](OC(=O)CCCN(C)C)[C@@H](NC(=O)OC(C)(C)C)c4ccccc4)C[C@@](O)([C@@H](OC(=O)c4ccccc4)[C@H]21)C3(C)C.Cl [Compound 4]

Compound: Nc1ccn([C@@H]2O[C@H](CO)[C@@H](O)C2(F)F)c(=O)n1 [Gemcitabine]
time to regrowth: growth inhibition (PDX 14244-10P; 100 mg/kg): 21.9 days
maximal response to therapy (tumor response) (PDX 14244-10P; Gemcitabine monotherapy (100 mg/kg)): 42.11%
MTD [3]: around 240 mpk
growth inhibition versus saline control (#12424 PDX tumor model): statistically insignificant from saline control
delay of regrowth compared to saline (time to regrowth) (PDX model #14244; 35 mg/kg): two
delay of regrowth compared to saline (time to regrowth) (PDX model #14244; 100 mg/kg): 18 days
maximal tumor response to drug compared to control group (PDX model #14244): did not demonstrate a significant tumor response to drug
growth (body weight) ([2]; Gemcitabine 292 mg/kg, 72 h post-46scFv-ILs-DTXp3): least growth of the 292 mg/kg groups
ALT and AST ([2]; Gemcitabine 292 mg/kg, 72 h post-46scFv-ILs-DTXp3, study end): elevated ALT and AST at study end
histopathology: individual hepatocyte necrosis ([2]; highest-dose groups): increased incidence of individual hepatocyte necrosis (minimal to mild)
histopathology: extramedullary hematopoiesis in the spleen ([2]; highest-dose groups): Increased extramedullary hematopoieisis (EMH) in the spleen
toxicity (weight loss or catalyst enzyme profiling different than control mice) ([2]; mice, following an i.v. dose for 10 days, doses as high as 291.6 mg/kg): did not find toxicity
maximal response: decrease in tumor volume ([4]; 35 mg/kg): 27%
tumor growth inhibition relative to control (time to regrowth) ([4]; 35 mg/kg): 27 days
maximal response: decrease in tumor volume ([4]; 100 mg/kg): 37%
tumor growth inhibition relative to control (time to regrowth) ([4]; 100 mg/kg): 37 days

Compound: O=C1[O][Pt]2([NH][C@@H]3CCCC[C@H]3[NH]2)[O]C1=O [Oxaliplatin]
growth inhibition versus saline control (#12424 PDX tumor model): statistically insignificant from saline control
delay of regrowth over control group (time to regrowth) (PDX model #14244; 5 mg/kg): 2 days
delay of regrowth over control group (time to regrowth) (PDX model #14244; 10 mg/kg): 1 days
maximal tumor response to drug compared to control group (PDX model #14244): did not demonstrate a significant tumor response to drug
tumor growth inhibition relative to control (time to regrowth) ([4]; 10 mg/kg): 30 days
maximal tumor response to drug versus saline control ([4]; both treatment doses): did not show a statistically significant difference from saline control

Compound: CC(=O)O[C@@]12CO[C@@H]1C[C@H](O)[C@@]1(C)C(=O)[C@H](O)C3=C(C)[C@@H](OC(=O)[C@H](O)[C@@H](NC(=O)OC(C)(C)C)c4ccccc4)C[C@@](O)([C@@H](OC(=O)c4ccccc4)[C@H]21)C3(C)C [docetaxel]
growth arrest and tumor regression [1]: minimal growth arrest and no tumor regression
Time-to-tumor regrowth (TTR; time for tumor to double its volume) [1]: minor delay on time to regrowth
